Results on 45 molecules are retold here after patent publication US9320722B2, “Regulators of aldehyde dehydrogenase ALDH3A1 and related therapeutic methods” (Indiana University Research and Technology Corporation, priority 2013, dated 2016).

Like-named read-outs stand apart in the source and are kept apart here. A value given as a limit tells only on which side of the number the result lay.

The target of data set [1] is T1, ALDH3A1 (Homo sapiens (Human), UniProt P30838).
Protocol: (§1) The enzymatic activity of ALDH1A1, ALDH2 and ALDH3A1 were measured as described previously^[30,34,37,39].
(§2) All reactions were initiated by the addition of the aldehyde substrate. The inhibition curves were fit to the Logistic four parameter IC50 equation using the SigmaPlot (v11, StatSys). We characterized the mode of inhibition using steady-state kinetics through co-variation of inhibitor and substrate concentrations. The steady state kinetic measurements were performed in 100 mM Na2HPO4 buffer, pH 7.5. […] In all cases—including the control reactions lacking inhibitors, the final reaction mixture contained 2% (v/v) DMSO. The reaction was initiated by addition of substrate and the initial rate of product formation was determined on a Beckman DU-640. All data were fit to the non-linear velocity expressions for competitive, non-competitive, mixed-type non-competitive and uncompetitive inhibition^[40]. Appropriateness of the inhibition model was determined through analysis of goodness-of-fit and the residuals of those fits. Lineweaver-Burke plots were created using SigmaPlot (v11, StatSys) to visualize the inhibition patterns. All data represent the average of three independent experiments utilizing triplicate assays at each concentration point.
(§3) ALDH1A1, ALDH2 and ALDH3A1 activities were measured as described earlier^33,44,45. […] Reaction was initiated by the addition of the aldehyde substrate. […] The inhibition curves were fit to the Logistic four parameter IC50 equation using the SigmaPlot (v11, StatSys). Steady state kinetic experiments were performed by co-varying inhibitor and substrate concentrations. The steady state kinetic measurements were performed in 100 mM Na2HPO4 buffer, pH 7.5.
The target in data set [2] is T1, ALDH3A1. Nature of the data set: biochemical. To be noted: for inhibition at 10 µM: read-out: % activity left after treating with 10 micromolar inhibitor ALDH3A1.
Protocol: as §1, §2, §3
A short description of a further data set: Solubility. To be noted: for concentration of homogenous solution easily formed: in the presence of […] DMSO. It counts as physicochemical.
The target in another data set is ALDH2 (Homo sapiens (Human), UniProt P05091). Nature of the data set: ALDH2 dehydrogenase activity / IC50 determination (propionaldehyde substrate). It counts as biochemical. The following applies: for IC50: Table 4, hits from ChemDiv screen, NI not defined, read-out: IC50 (micromolar) ALDH2; for inhibitory potential toward ALDH2 activity in vitro (in words): CB29 analogs.
ALDH2, sequence (P05091 18-517): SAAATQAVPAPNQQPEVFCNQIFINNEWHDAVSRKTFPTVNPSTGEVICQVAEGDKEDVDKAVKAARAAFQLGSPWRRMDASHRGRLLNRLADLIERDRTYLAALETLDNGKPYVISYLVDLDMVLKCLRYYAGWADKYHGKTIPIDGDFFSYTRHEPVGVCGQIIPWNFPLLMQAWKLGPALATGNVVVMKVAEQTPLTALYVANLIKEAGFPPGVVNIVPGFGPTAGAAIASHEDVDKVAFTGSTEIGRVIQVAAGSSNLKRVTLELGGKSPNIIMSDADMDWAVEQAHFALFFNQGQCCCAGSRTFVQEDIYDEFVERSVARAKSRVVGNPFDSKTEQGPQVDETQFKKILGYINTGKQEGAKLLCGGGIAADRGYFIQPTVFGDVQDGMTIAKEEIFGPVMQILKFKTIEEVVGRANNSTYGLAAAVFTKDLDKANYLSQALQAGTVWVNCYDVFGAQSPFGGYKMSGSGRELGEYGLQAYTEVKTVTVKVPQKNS

Another data set addresses ALDH1A1 (Homo sapiens (Human), UniProt P00352). Nature of the data set: ALDH1A1 dehydrogenase activity / IC50 determination (propionaldehyde substrate). It counts as biochemical. To be noted: for IC50: Table 4, hits from ChemDiv screen, read-out: IC50 (micromolar) ALDH1A1; for inhibitory potential / activity toward ALDH1A1 in vitro (in words): CB29 analogs; for IC50 (micromolar) ALDH1A1: Tables 1A/1B, propionaldehyde substrate, S.D. in parentheses.

A further data set concerns A549 cells. Nature of the data set: MTT assay for cell proliferation / mafosfamide sensitivity, A549. The following applies: FIG. 4A; for sensitivity to mafosfamide on co-treatment (in words), A549: 50 μM inhibitor + mafosfamide; for effect on cell proliferation as single agent (in words), A549: 50 μM inhibitor. It counts as cell-based. For orientation: Formazan colour is commonly taken as a measure of viable cells.

A further data set deals with SF767 cells. Nature of the data set: MTT assay for cell proliferation / mafosfamide sensitivity, SF767. It counts as cell-based. The following applies: for sensitivity to mafosfamide on co-treatment (in words), SF767: 50 μM inhibitor + […] mafosfamide; for sensitivity to mafosfamide on co-treatment (in words), SF767 / effect on cell proliferation as single agent (in words), SF767: FIG. 4B; for effect on cell proliferation as single agent (in words), SF767: 50 μM inhibitor; for chemosensitivity to mafosfamide (in words), SF767: 10 μM inhibitor + mafosfamide.

Setting [3] is: read-out: ALDH3A1 IC50 (micromolar), Table 4(B), hits from ChemBridge screen.
Setting [4] is: read-out: IC50 (micromolar) ALDH3A1, Table 4, hits from ChemDiv screen.
Setting [5] is: read-out: IC50 (micromolar) ALDH3A1, Tables 1A/1B, benzaldehyde substrate, S.D. for three assays in parentheses.
Where [6] appears, read: read-out: IC50 against ALDH3A1, benzaldehyde substrate.

T1 sequence (P30838 whole entry): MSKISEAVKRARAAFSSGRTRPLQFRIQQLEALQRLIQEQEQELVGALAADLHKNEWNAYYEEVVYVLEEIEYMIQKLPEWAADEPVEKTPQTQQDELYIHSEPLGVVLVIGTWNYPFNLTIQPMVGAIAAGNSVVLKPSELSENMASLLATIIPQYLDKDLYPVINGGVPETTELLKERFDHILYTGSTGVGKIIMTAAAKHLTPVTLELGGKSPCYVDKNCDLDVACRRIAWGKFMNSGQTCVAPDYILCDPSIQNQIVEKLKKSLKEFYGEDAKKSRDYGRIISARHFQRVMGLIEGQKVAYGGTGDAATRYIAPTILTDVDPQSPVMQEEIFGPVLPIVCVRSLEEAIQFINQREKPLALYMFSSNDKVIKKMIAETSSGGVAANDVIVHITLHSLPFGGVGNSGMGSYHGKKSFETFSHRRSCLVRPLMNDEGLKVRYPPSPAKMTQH
ALDH1A1, sequence (P00352 whole entry): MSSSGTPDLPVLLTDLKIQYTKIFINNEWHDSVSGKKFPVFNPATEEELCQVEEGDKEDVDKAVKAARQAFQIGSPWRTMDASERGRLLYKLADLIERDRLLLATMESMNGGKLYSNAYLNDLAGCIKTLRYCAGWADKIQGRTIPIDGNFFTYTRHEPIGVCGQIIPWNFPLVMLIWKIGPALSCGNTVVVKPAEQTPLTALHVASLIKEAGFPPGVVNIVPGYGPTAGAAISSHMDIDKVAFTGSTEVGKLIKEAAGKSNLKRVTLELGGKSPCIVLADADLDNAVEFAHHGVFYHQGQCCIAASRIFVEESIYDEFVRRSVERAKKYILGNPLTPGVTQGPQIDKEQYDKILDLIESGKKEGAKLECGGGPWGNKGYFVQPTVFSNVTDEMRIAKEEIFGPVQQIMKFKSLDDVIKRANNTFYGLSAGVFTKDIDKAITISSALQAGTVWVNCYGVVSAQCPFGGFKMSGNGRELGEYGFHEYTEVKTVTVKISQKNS
Protocol for ALDH1A1: as §1, §2, §3
Protocol for ALDH2: The enzymatic activity of ALDH1A1, ALDH2 and ALDH3A1 were measured as described previously^[30,34,37,39]. The specific activities of the purified proteins were 1.9, 3.8 and 32 μmole/min/mg for ALDH1A1, ALDH2 and ALDH3A1 respectively.
as §2, §3

A word on the IC50: it is the concentration at which inhibition is half-maximal. Regarding `N#CSCCCCOc1ccc(Cl)cc1` [CB1], the half-maximal inhibitory concentration (IC50) on ALDH3A1 [1] (setting [3]) was found to be 3.7 µM.
The same measure, in the same setting: the figure for `O=[N+](O)c1ccccc1CNc1ccc(F)c(F)c1` [CB2] is 5.2 µM.
As for `Cc1cc(OCC(=O)O)c([N+](=O)O)cc1Cl` [CB3], at ALDH3A1 [2], the inhibition at 10 µM was determined as 55%.
Still for that read-out and setting: the figure for `Cc1cc(C2CNc3ccccc32)oc(=O)c1` (stereo not drawn) [CB4] is 60%; for `Nc1ccc(-c2cc(C(=O)O)c3ccccc3n2)cc1` [CB5] it is 34%.
Take `N#CSC1CN=C(NC2CCCCC2)S1` (stereo not drawn) [CB6]: at ALDH3A1 [2], the inhibition at 10 µM came to 6%.
In the case of `Cc1nc2ccccc2n1S(=O)(=O)c1ccc(F)cc1` [CB7, 1-[(4-fluorophenyl)sulfonyl]-2-methyl-1H-benzimidazole], the “solubility (in words)” value in “Solubility” is “very good solubility”.
For the molecule `N#CC(Cc1ccc(S(=O)(=O)c2ccc(Cl)cc2)cc1)c1nc2ccccc2[nH]1` (stereo not drawn) [CB10], the inhibition at 10 µM on ALDH3A1 [2] turned out to be 58%.
Same read-out and setting: as for `OCCCn1c(-c2ccc(Cl)cc2)cn2c3ccccc3nc12` [CB11], the figure is 61%.
Consider `CCN(CC)CCC(=O)c1ccc2c(c1)OCO2` [CB12], for which the IC50 at ALDH3A1 [1] (setting [3]) came to 3.2 µM.
On the same count and under the same terms, the figure for `O=C(CCN1CCOCC1)c1ccc2c(c1)OCCO2` [CB13] is 11.7 µM.
As to `O=[N+]([O-])c1ccc(N2CCCC2)c(F)c1` [CB14], the inhibition at 10 µM at ALDH3A1 [2] came out at 47%.
Same read-out and setting: as for `CCNC(=O)CC1Nc2cc(C)c(C)cc2NC1=O` (stereo not drawn) [CB16], the figure is 50%; as for `CN(CC(=O)[O-])c1nc2ccc([N+](=O)O)cc2s1` [CB21], 58%; as for `O=C(CSc1ccccc1)NCc1ccco1` [CB23], 65%.
Take `CCOc1cc(/C=C/[N+](=O)O)ccc1O` [CB26]: the inhibition at 10 µM on ALDH3A1 [2] came to 45%.
Turning to `c1ccc(CNc2nc(-c3ccccn3)cs2)cc1` [CB27], the inhibition at 10 µM on ALDH3A1 [2] amounted to 43%.
The same measure, in the same setting: the figure for `O=C(O)CCc1ccc(-c2ccc(F)cc2)o1` [CB32] is 36%.
Still for that read-out and setting: as for `C=CCOc1ccc(/C=C/[N+](=O)O)cc1OC` [CB35], the figure is 46%.
As for `C#CCOc1ccc(/C=C/[N+](=O)O)cc1` [CB36], the inhibition at 10 µM on ALDH3A1 [2] is 30%.
Take `Cc1ccc(/C=C/[N+](=O)O)cc1Br` [CB37]: the inhibition at 10 µM at ALDH3A1 [2] was found to be 30%.
Same read-out and setting: the figure for `COc1ccc(/C=C/[N+](=O)O)cc1Br` [CB38] is 40%; for `Cc1ccc(-c2ccc(/C=C/[N+](=O)O)o2)c(Br)c1` [CB39] it is 32%; for `COc1ccc(/C=C/[N+](=O)O)cc1I` [CB40] it is 30%.
As to `CN(C)c1ccc(/C=C/[N+](=O)O)cc1Br` [CB41], the inhibition at 10 µM on ALDH3A1 [2] was determined as 45%.
Regarding `C#CCOc1c(Cl)cc(/C=C/[N+](=O)O)cc1OC` [CB42], the inhibition at 10 µM at ALDH3A1 [2] turned out to be 46%.
Take `O=C1Nc2ccccc2C12Oc1ccccc1C1CC(c3ccccc3)=NN12` (stereo not drawn) [CD3]: the IC50 on ALDH2 was 41.8 µM; at ALDH3A1 [1] (setting [4]), 38.5 µM; at ALDH1A1, 6.5 µM.
The matching figures for `CCCSc1nnc2c(n1)OC(C(=O)c1ccc(OC)cc1)Nc1ccccc1-2` (stereo not drawn) [CD4]: 1.4 µM, 2.5 µM and 21.2 µM.
The matching figures for `CCSc1nnc2c(n1)OC(C(=O)c1ccc(OC)cc1)Nc1ccccc1-2` (stereo not drawn) [CD5]: 1.2 µM, 1.5 µM and 8.2 µM.
With `CCOC(=O)CN1C(=O)C(O)(CC(=O)c2ccccn2)c2ccccc21` (stereo not drawn) [CD7], the IC50 on ALDH3A1 [1] (setting [4]) turned out to be 25.5 µM; on ALDH1A1 it was 0.7 µM.
On to `CCOC(=O)CN1C(=O)C(O)(CC(=O)c2ccncc2)c2ccccc21` (stereo not drawn) [CD8], for which the IC50 at ALDH2 was 11.1 µM; on ALDH3A1 [1] (setting [4]), 6.3 µM; on ALDH1A1, 0.8 µM.
`Cc1ccc(S(=O)(=O)NC(O)C(=O)c2cccs2)cc1` (stereo not drawn) [CD10]: the IC50 stood at 2.2 µM at ALDH2, 3.4 µM at ALDH3A1 [1] (setting [4]) and 4 µM on ALDH1A1.
Regarding `O=C(NC(O)C(=O)c1cccs1)c1cccnc1` (stereo not drawn) [CD11], the half-maximal inhibitory concentration (IC50) at ALDH2 worked out at 6.5 µM; on ALDH3A1 [1] (setting [4]), 10.2 µM; at ALDH1A1, 5.9 µM.
The matching figures for `O=C(NC(O)C(=O)c1cccs1)c1ccncc1` (stereo not drawn) [CD12]: 5.3 µM, 5.6 µM and 4.2 µM.
The matching figures for `CCn1c(-c2ccc(OC)c(F)c2)cs/c1=N/c1ccccc1` [CD13]: 7.3 µM, 60 µM and 6.3 µM.
The matching figures for `CCCC1C(C#N)=C(SCC(=O)c2ccc(Br)cc2)NC(C)=C1C(C)=O` (stereo not drawn) [CD14]: 13.7 µM, 71.5 µM and 10.4 µM.
For `Cc1cccc(C(=O)CN2CCN(S(=O)(=O)c3cc(Cl)ccc3Cl)CC2)c1` [CD20], the 50% inhibitory concentration (IC50) on ALDH3A1 [1] (setting [4]) came to 41 µM; on ALDH1A1, 33 µM.
For the molecule `CNS(=O)(=O)c1ccc(Nc2ccc(F)cc2)c([N+](=O)[O-])c1` [Compound 2], the “inhibitory potential toward ALDH2 activity in vitro (in words)” value against ALDH2 is “no inhibitory potential”. In the data set with A549 cells, the “sensitivity to mafosfamide on co-treatment (in words), A549” value (from here on “sensitivity to mafosfamide … A549”) is “increased sensitivity to mafosfamide” and the “effect on cell proliferation as single agent (in words), A549” value (from here on “effect on cell proliferation … A549”) is “little effect on cell proliferation”. For the same molecule, the “concentration of homogenous solution easily formed” value (“concentration” for short) in the data set “Solubility” is at least 100 µM. In addition, in the data set on SF767 cells, the “sensitivity to mafosfamide on co-treatment (in words), SF767” value is given as “increased sensitivity to mafosfamide” and the “effect on cell proliferation as single agent (in words), SF767” value (from here on “effect on cell proliferation … SF767”) is given as “little effect on cell proliferation”. Further, the 50% inhibitory concentration (IC50) at ALDH3A1 [1] (setting [5]) came out at 26 µM. For the same molecule, the IC50 on ALDH3A1 [1] (setting [6]) was determined as 26 µM. Also, the “inhibitory potential / activity toward ALDH1A1 in vitro (in words)” value against ALDH1A1 was “no inhibitory potential”.
Regarding `Cc1ccc(C)c(Nc2ccc(S(C)(=O)=O)cc2[N+](=O)[O-])c1` [Compound 7], at ALDH1A1, the “IC50 (micromolar) ALDH1A1” value was “WA (WA represents (30-50) % activation shown by 100 μM compound to respective enzymes)”.
As for `Cc1ccc(Nc2ccc(S(C)(=O)=O)cc2[N+](=O)[O-])cc1F` [Compound 8], at ALDH2, the “inhibitory potential toward ALDH2 activity in vitro (in words)” value is listed as “no inhibitory potential”. In the data set with A549 cells, the “sensitivity to mafosfamide … A549” value is “increased sensitivity to mafosfamide” and the “effect on cell proliferation … A549” value is reported as “little effect on cell proliferation”. Moreover, the “concentration” value in “Solubility” is at least 100 µM. In addition, in the data set on SF767 cells, the “sensitivity to mafosfamide on co-treatment (in words), SF767” value was “increased sensitivity to mafosfamide” and the “effect on cell proliferation … SF767” value was “little effect on cell proliferation”. On ALDH3A1 [2], the IC50 turned out to be 10 µM. In addition, the concentration for half-maximal inhibition (IC50) at ALDH3A1 [1] (setting [5]) is 10.8 µM. In addition, on ALDH1A1, the “inhibitory potential / activity toward ALDH1A1 in vitro (in words)” value is listed as “no inhibitory potential” and the “IC50 (micromolar) ALDH1A1” value is on record as “WA (WA represents (30-50) % activation shown by 100 μM compound to respective enzymes)”.
On to `CNS(=O)(=O)c1ccc(Nc2ccc(OC)cc2)c([N+](=O)[O-])c1` [Compound 10], for which the “inhibitory potential toward ALDH2 activity in vitro (in words)” value against ALDH2 is reported as “no inhibitory potential”. For the same molecule, the “effect on cell proliferation … A549” value in the data set on A549 cells is reported as “little effect on cell proliferation”. In the data set “Solubility”, the “concentration” value was at least 100 µM. In the data set on SF767 cells, the “effect on cell proliferation … SF767” value is “little effect on cell proliferation”. Also, the IC50 was found to be 31.7 µM at ALDH3A1 [1] (setting [5]) and 31 µM on ALDH3A1 [1] (setting [6]). Besides, the “inhibitory potential / activity toward ALDH1A1 in vitro (in words)” value against ALDH1A1 is “no inhibitory potential”.
For `CNS(=O)(=O)c1ccc(Nc2ccc(OC(F)F)cc2)c([N+](=O)[O-])c1` [Compound 11], the “inhibitory potential toward ALDH2 activity in vitro (in words)” value at ALDH2 is “no inhibitory potential”. Also, in the data set on A549 cells, the “sensitivity to mafosfamide … A549” value is listed as “increased sensitivity to mafosfamide” and the “effect on cell proliferation … A549” value is listed as “little effect on cell proliferation”. Besides, the “concentration” value in “Solubility” is at least 100 µM. In the data set with SF767 cells, the “sensitivity to mafosfamide on co-treatment (in words), SF767” value is “increased sensitivity to mafosfamide” and the “effect on cell proliferation … SF767” value is reported as “little effect on cell proliferation”. At ALDH3A1 [1] (setting [5]), the IC50 came to 24.7 µM. Further, on ALDH3A1 [1] (setting [6]), the IC50 amounted to 24 µM. The “inhibitory potential / activity toward ALDH1A1 in vitro (in words)” value against ALDH1A1 is “no inhibitory potential”.
For the molecule `Cc1nc2ccccc2n1S(=O)(=O)c1ccc(Cl)cc1` [Compound A20], the “chemosensitivity to mafosfamide (in words), SF767” value (from here on “chemosensitivity to mafosfamide”) with SF767 cells is “significantly increased chemosensitivity”.
For `O=S(=O)(c1ccc(Cl)cc1)n1cnc2ccccc21` [Compound A21], in the data set with SF767 cells, the “chemosensitivity to mafosfamide” value was “significantly increased chemosensitivity”.
As to `CC(=O)c1nc2ccccc2n1S(=O)(=O)c1ccc(Cl)cc1` [Compound B37], the “chemosensitivity to mafosfamide” value in the data set on SF767 cells is “significantly increased chemosensitivity”.
